Reference: PubChem BioAssay AID1963863 (Molecular Pharmacology Branch, DTP, NCI, 2024)

Test system: 931267-113-T-J1-PDC KRAS spheroid with HUVEC/MSC, viability
Test: Anticancer human tumor 931267-113-T-J1-PDC patient-derived colon adenocarcinoma cell line growth inhibition [KRAS2]
Details: for IC50: curve of first compound; for viability, T/C: stronger effect = lower value
How it was run: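 Combination screen of spheroid viability in tumor-cell co-cultures with endothelial (HUVEC) and mesenchymal stem cell stroma. Each agent was tested in half-log dilutions, topping at clinical Cmax or at 10 microM without a known Cmax.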

[1] = second compound 0.1 µM, first compound 0.0316 µM
[2] = second compound 0.1 µM, first compound 0.1 µM
[3] = second compound 0.1 µM, first compound 0.316 µM
[4] = second compound 0.1 µM, first compound 1 µM
[5] = second compound 0.1 µM, first compound 3.16 µM
[6] = second compound 0.1 µM, first compound 10 µM
[7] = second compound 0.316 µM, first compound 0.0316 µM
[8] = second compound 0.316 µM, first compound 0.1 µM
[9] = second compound 0.316 µM, first compound 0.316 µM
[10] = second compound 0.316 µM, first compound 1 µM
[11] = second compound 0.316 µM, first compound 3.16 µM
[12] = second compound 0.316 µM, first compound 10 µM
[13] = second compound 1 µM, first compound 0.0316 µM
[14] = second compound 1 µM, first compound 0.1 µM
[15] = second compound 1 µM, first compound 0.316 µM
[16] = second compound 1 µM, first compound 1 µM
[17] = second compound 1 µM, first compound 3.16 µM
[18] = second compound 1 µM, first compound 10 µM
[19] = second compound 3.16 µM, first compound 0.0316 µM
[20] = second compound 3.16 µM, first compound 0.1 µM
[21] = second compound 3.16 µM, first compound 0.316 µM
[22] = second compound 3.16 µM, first compound 1 µM
[23] = second compound 3.16 µM, first compound 3.16 µM
[24] = second compound 3.16 µM, first compound 10 µM
[25] = second compound 10 µM, first compound 0.0316 µM
[26] = second compound 10 µM, first compound 0.1 µM
[27] = second compound 10 µM, first compound 0.316 µM
[28] = second compound 10 µM, first compound 1 µM
[29] = second compound 10 µM, first compound 3.16 µM
[30] = second compound 10 µM, first compound 10 µM
[31] = second compound 0.1 µM, first compound 0.00316 µM
[32] = second compound 0.1 µM, first compound 0.01 µM
[33] = second compound 0.316 µM, first compound 0.00316 µM
[34] = second compound 0.316 µM, first compound 0.01 µM
[35] = second compound 1 µM, first compound 0.00316 µM
[36] = second compound 1 µM, first compound 0.01 µM
[37] = second compound 3.16 µM, first compound 0.00316 µM
[38] = second compound 3.16 µM, first compound 0.01 µM
[39] = second compound 10 µM, first compound 0.00316 µM
[40] = second compound 10 µM, first compound 0.01 µM
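Also: compound exposure lasted 7 days before the readout.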
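For viability, T/C in this document: 100% = DMSO vehicle control viability.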

Row | Structure (SMILES) | IC50 (second compound 0.1 µM) | IC50 (second compound 0.316 µM) | IC50 (second compound 1 µM) | IC50 (second compound 3.16 µM) | IC50 (second compound 10 µM) | viability, T/C [1] | viability, T/C [2] | viability, T/C [3] | viability, T/C [4] | viability, T/C [7] | viability, T/C [8] | viability, T/C [9] | viability, T/C [10] | viability, T/C [13] | viability, T/C [14] | viability, T/C [15] | viability, T/C [19] | viability, T/C [20] | viability, T/C [25] | viability, T/C [26] | also measured
1 | CC(C)NCC(C(=O)N1CCN(c2ncnc3c2C(C)CC3O)CC1)c1ccc(Cl)cc1 (stereo not given) + CC1OCC2(CCN(c3cnc(Sc4ccnc(N)c4Cl)c(N)n3)CC2)C1N | 3560 nM | 3720 nM | 5160 nM | 1850 nM | 2270 nM | 78.8% | 71.7% | 87% | 64.4% | 86.4% | 73.5% | 81.7% | 75.2% | 95% | 56.9% | 75.5% | 78.2% | 77.3% | 73.8% | 67.9% | viability, T/C [5]: 53.3%; viability, T/C [6]: 37.3%; viability, T/C [11]: 53%; viability, T/C [12]: 32.2%; viability, T/C [16]: 59.4%; viability, T/C [17]: 63.7%; viability, T/C [18]: 39%; viability, T/C [21]: 74.4%; viability, T/C [22]: 56.3%; viability, T/C [23]: 44.6%; viability, T/C [24]: 35%; viability, T/C [27]: 76.7%; viability, T/C [28]: 52.8%; viability, T/C [29]: 48.8%; viability, T/C [30]: 22.5%
2 | CCN1CCN(Cc2ccc(Nc3ncc(F)c(-c4cc(F)c5nc(C)n(C(C)C)c5c4)n3)nc2)CC1 + CC1OCC2(CCN(c3cnc(Sc4ccnc(N)c4Cl)c(N)n3)CC2)C1N | 27.3 nM | 32.8 nM | 41.2 nM | 68.8 nM | 201 nM | 43.5% | 51.4% | 53.7% | 36.9% | 50.3% | 43.3% | 45.1% | 37.5% | 53.1% | 41.4% | 42% | 54.4% | 43.6% | 52.9% | 58.7% | viability, T/C [31]: 75.4%; viability, T/C [32]: 58.2%; viability, T/C [33]: 63%; viability, T/C [34]: 91.7%; viability, T/C [35]: 69.5%; viability, T/C [36]: 82%; viability, T/C [16]: 35.3%; viability, T/C [37]: 71.5%; viability, T/C [38]: 70.2%; viability, T/C [21]: 40.8%; viability, T/C [22]: 23.8%; viability, T/C [39]: 70.6%; viability, T/C [40]: 79.1%; viability, T/C [27]: 49%; viability, T/C [28]: 9.83%
3 | CCNC(=O)CC1N=C(c2ccc(Cl)cc2)c2cc(OC)ccc2-n2c(C)nnc21 (stereo not given) + CC1OCC2(CCN(c3cnc(Sc4ccnc(N)c4Cl)c(N)n3)CC2)C1N | 536 nM | 316 nM | 468 nM | 586 nM | 563 nM | 80.7% | 90.4% | 51.9% | 46.6% | 80.4% | 60.5% | 58.7% | 27.4% | 69.7% | 68.5% | 51.5% | 78.1% | 59.7% | 87.2% | 73.4% | viability, T/C [5]: 30.4%; viability, T/C [6]: 27.6%; viability, T/C [11]: 34.6%; viability, T/C [12]: 21.6%; viability, T/C [16]: 40.7%; viability, T/C [17]: 31%; viability, T/C [18]: 15.8%; viability, T/C [21]: 70.8%; viability, T/C [22]: 33%; viability, T/C [23]: 22.1%; viability, T/C [24]: 13.4%; viability, T/C [27]: 60.3%; viability, T/C [28]: 40.5%; viability, T/C [29]: 25.8%; viability, T/C [30]: 14.2%
4 | Cn1ncnc1[C@H]1c2n[nH]c(=O)c3cc(F)cc(c23)N[C@@H]1c1ccc(F)cc1 + CC1OCC2(CCN(c3cnc(Sc4ccnc(N)c4Cl)c(N)n3)CC2)C1N | > 100 nM | > 100 nM | > 100 nM | > 100 nM | > 100 nM | 90.3% | 80.5% | – | – | 60.8% | 68.4% | – | – | 70.3% | 51.2% | – | 91.4% | 69.7% | 71% | 51% | viability, T/C (second compound 0.1 µM, first compound 0.000316 µM): 93.9%; viability, T/C (second compound 0.1 µM, first compound 0.001 µM): 97.8%; viability, T/C [31]: 89.2%; viability, T/C [32]: 89.3%; viability, T/C (second compound 0.316 µM, first compound 0.000316 µM): 84%; viability, T/C (second compound 0.316 µM, first compound 0.001 µM): 91.4%; viability, T/C [33]: 91.2%; viability, T/C [34]: 78.9%; viability, T/C (second compound 1 µM, first compound 0.000316 µM): 85.8%; viability, T/C (second compound 1 µM, first compound 0.001 µM): 85.3%; viability, T/C [35]: 85.4%; viability, T/C [36]: 95.2%; viability, T/C (second compound 3.16 µM, first compound 0.000316 µM): 83.7%; viability, T/C (second compound 3.16 µM, first compound 0.001 µM): 93.5%; viability, T/C [37]: 84.7%; viability, T/C [38]: 80.6%; viability, T/C (second compound 10 µM, first compound 0.000316 µM): 77.6%; viability, T/C (second compound 10 µM, first compound 0.001 µM): 73.5%; viability, T/C [39]: 85.3%; viability, T/C [40]: 77.8%
